Test [1] addresses T1, human A3 receptors (Homo sapiens, UniProt P0DMS8).
T1 construct: expressed in transfected cells; host or cells: HEK-293 cells, stably transfected; membrane preparation
T1 sequence (P0DMS8 1-318): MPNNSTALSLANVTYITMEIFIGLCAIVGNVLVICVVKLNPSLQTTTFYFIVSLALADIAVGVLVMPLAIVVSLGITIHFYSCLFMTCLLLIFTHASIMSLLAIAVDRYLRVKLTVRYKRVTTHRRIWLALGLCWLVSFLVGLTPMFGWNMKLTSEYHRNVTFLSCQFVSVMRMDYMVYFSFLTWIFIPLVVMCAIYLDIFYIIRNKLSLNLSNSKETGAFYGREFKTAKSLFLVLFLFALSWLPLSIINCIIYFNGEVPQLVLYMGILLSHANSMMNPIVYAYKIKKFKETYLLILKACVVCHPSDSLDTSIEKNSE
The experiment in a line: Adenosine receptor binding assay ([3H]HEMADO competition). As to conditions: Cheng-Prusoff, read-out: hA3 Ki. The source says:
Materials and Reference Compounds: [^3H] HEMADO (obtained from (ARC, Cat: ART1456) and [3H] DPCPX (obtained from PerkinElmer Cat no. NET974250UC)). IB-MECA was obtained from Tocris (Bristol, UK) and N6-cyclopentyl adenosine (CPA) is obtained from Sigma-Alrich (Poole, UK). Cell culture media, G418 and hygromycin are obtained from Invitrogen (Paisley, UK). Fetal calf serum is obtained from Perbio Science (Cheshire, UK). All other reagents are obtained from Fisher Chemicals (Loughborough, UK).
The method followed is that of Yates L, Clark J H, Martin T J, James S, Broadley K J, Kidd E J. Radioligand binding and functional responses of ligands for human recombinant adenosine A3 receptors. Auton Autacoid Pharmacol. 2006; 26 (2): 191-200. Cells stably transfected with the human adenosine A3 or A1 receptor are grown in Dulbecco's modified Eagles medium with nutrient mixture F12 containing NaHCO3 and Glutamax. Media is supplemented with 10% fetal calf serum, geneticin (G418; 0.67 mg/mL), hygromycin (500 μg/mL) and adenosine deaminase (1 U/mL). Cells are maintained at 37° C. with 5% CO2 in air. Cells are harvested and homogenized in ice-cold Tris buffer [50 mM Tris, 150 mM NaCl, 1 mM ethylenediaminetetraacetic acid (EDTA), pH 7.4] supplemented with the peptidase inhibitors, 4-(2-aminoethyl)benzene sulfonylfluoride (1 mM) and bacitracin (0.1 mg/mL), using a Polytron homogenizer (3×10 s bursts). The homogenate is spun for 10 min (4° C.) at 500 g. The supernatant is retained and the pellet is re-suspended in the buffer, homogenized and spun as above. The combined supernatants are centrifuged for 15 min (4° C.) at 48,000 g. The resultant pellet is re-suspended in the buffer and centrifuged for a second time at 48,000 g. The membrane pellet is then suspended in Tris buffer containing no peptidase inhibitors or adenosine deaminase and stored at −80° C. at a protein concentration of 1 mg/mL.
Binding Assays: Radioligand-binding assays are performed using the adenosine A3 receptor agonist [^3H] HEMADO and the A1 receptor […] [^3H] DPCPX. Binding assays are conducted in a total volume of 100 μL containing a 50 mM Tris, pH 7.4 buffer with or without 10 mM MgCl2, 20 μg membranes and either 4.154 nM [3H] HEMADO (for the A3 receptor) or 1.6065 nM [^3H] DPCPX (for the A1 receptor). Assays are conducted at room temperature for 60 min (A1 receptor) or 120 min (A3 receptor) and terminated by the addition of 2 ml of ice-coldish buffer (50 mM Tris, pH 7.4 with or without 10 mM MgCl2) and rapid filtration over 0.03% polyethylenimine-treated Whatman GF/C filters using a Brandel cell harvester (Semat International Ltd., St Albans, UK). Filters are then ished three times with 2 ml of ice-cold buffer. The filter-bound radioactivity are counted using a Compugamma counter (LKB Wallac, Turku, Finland). Competition experiments are performed to investigate the ability of reference compounds and embodiments of the invention to inhibit [^3H] HEMADO binding. Non-specific binding are determined using the respective compound at its highest concentration.
Data Analysis: The Kd and Bmax values for binding data are calculated based upon the molar amounts of bound and free [^3H] HEMADO. […] IC50 and Ki values and Hill slopes for inhibition of the radioligand binding by the compounds of the invention are calculated from the ligand competition curves using the Excel spreadsheet and the Kd value calculated for either [^3H] HEMADO or [^3H] DPCPX. The results are expressed as a percent of control specific binding and as a percent inhibition of control specific binding obtained in the presence of the compounds of the invention. The IC50 values (concentration causing a half-maximal inhibition of control specific binding) and Hill coefficients (nH) are determined by non-linear regression analysis of the competition curves generated with mean replicate values using Hill equation curve fitting: […]

Test [2] addresses T2, human adenosine A3 receptor (Homo sapiens, UniProt P0DMS8).
T2 construct: expressed in transfected cells; host or cells: CHO-K1 cells, stably transfected
T2 sequence (P0DMS8 1-318): T1 sequence (P0DMS8 1-318)
The experiment in a line: Intracellular cAMP levels (inhibition of forskolin-stimulated cAMP production). Format: cell-based. As to conditions: Table 2, # = average between two data points; for EC50: CHO-K1 cells expressing human adenosine A3 receptor, forskolin 10 μM; for cAMP Efficacy (%): maximal response as percentage of the response produced by 100 nM IB-MECA. The text has this:
The method followed is that published in Yates L, Clark J H, Martin T J, James S, Broadley K J, Kidd E J. Radioligand binding and functional responses of ligands for human recombinant adenosine A3 receptors. Auton Autacoid Pharmacol. 2006 April; 26 (2): 191-200.
Materials and Cell Culture: Adenosine deaminase is obtained from Roche (Lewes, UK). Forskolin is obtained from Sigma-Aldrich (Poole, UK). The sources of other materials are provided above in Example 1. CHO-K1 cells stably transfected with the human adenosine A3 receptor are grown in Dulbecco's modified Eagles medium with nutrient mixture F12 containing NaHCO3 and Glutamax. Media is supplemented with 10% fetal calf serum, geneticin (G418; 0.67 mg/mL), hygromycin (500 μg/mL) and adenosine deaminase (1 U/mL). Cells are maintained at 37° C. with 5% CO2 in air.
CAMP Measurements: Intracellular cAMP production is measured directly using a non-acetylation cAMP enzyme immunoassay (Amersham Biosciences, Little Chalfont, UK). Cultured CHO cells expressing human adenosine A3 receptors are allowed to plate overnight in 96-well plates in culture medium containing adenosine deaminase. Twenty-four hours later, they are incubated with adenosine analogues or compounds of the invention (0.1 nM-1 μM) for 5 min at 37° C., followed by incubation with forskolin (10 μM) for 10 min. The cells are then lysed with 200 μL of lysis reagent 1 provided with the kit for 10 min to release intracellular CAMP. Aliquots of the supernatants are then transferred to a 96-well microtitre plate coated with donkey anti-rabbit IgG; 100-μL cAMP standards (12.5-3200 fmol/well) are also added to the microtitre plate; 100 μL of rabbit anti-cAMP antibody is added to all wells and incubated at 2-5° C. for 2 h. The antiserum is made up in lysis reagent 2, which sequesters the key component in lysis reagent 1 and ensures that CAMP is free for subsequent analysis. Then 50 μL of cAMP peroxidase conjugate is added to all wells and left to incubate for 60 min at 2-5° C. to allow competition for the antibody between the un-labelled and horse radish peroxidase (HRP)-labelled cAMP. Wells are then ished with buffer and 150 μL of enzyme substrate containing 3,3′,5,5′-tetramethylbenzidine/hydrogen peroxide in 20% (v/v) dimethylformamide is added to each well and left to incubate for 60 min on a Titramax 100 microtitre plate shaker (Heidolph Instruments, Schwabach, Germany) at room temperature for color development. The reaction is stopped by the addition of 100 μL of 1 M sulfuric acid and the optical density (OD) read at 450 nm on a spectrophotometric MRX microplate reader (Dynex Technologies, Chantilly, VA, USA).
Analyses: Each sample/standard was analyzed in duplicate and the resulting OD values averaged. The percent bound (B/B0) for each standard and sample was calculated using the following relationship:
[formula] • where B is the specific OD for standard/sample and B0 is the specific OD for the zero standard. A standard curve was generated by plotting % B/B0 as a function of the log fmol cAMP standard per well. The fmol per well value for cAMP in each sample was then read from the graph. The results are expressed as a percent of control agonist response: (measured response/control response)*100 in the presence of the compounds of the invention. Concentration-response curves for inhibition of cAMP production were constructed for all compounds of the invention and reference compounds. The EC50 values (concentration producing a half-maximal response) were determined by non-linear regression analysis of the concentration-response curves generated with mean replicate values using Hill equation curve fitting, according to the equation:
[formula] • where Y=response, A=left asymptote of the curve, D=right asymptote of the curve, C=compound concentration, and C50=EC50, and nH=slope factor. […]

Where [3] appears, read: Table 2, membranes of HEK-293 cells expressing human A3 receptor.
[4] abbreviates: Table 1, membranes of HEK-293 cells expressing human A3 receptor.

Each structure is given as a SMILES string. Like-named read-outs stand apart in the source and are kept apart here.

As for `CNC(=O)[C@H]1O[C@@H](n2cnc3c4[nH]c(C)cc4c(Cl)nc32)[C@H](O)[C@@H]1O` [1A*], the Ki in test [1] (setting [3]) was 1.79 nM.
Still for that read-out and setting: the result for `CNC(=O)[C@@]12C[C@@H]1[C@@H](n1cnc3c4[nH]c(C)cc4c(Cl)nc31)[C@H](O)[C@@H]2O` [2A*] reads 0.543 nM; that for `CC1Cc2c(Cl)nc3c(ncn3[C@H]3[C@H](O)[C@H](O)[C@]4(CO)C[C@H]34)c2N1` (some centres unmarked) [3A*], 65.7 nM; that for `Cc1cc2c(C#N)nc3c(ncn3[C@H]3[C@H](O)[C@H](O)C4C[C@@H]43)c2[nH]1` (some centres unmarked) [4A*], 1.09 nM.
Consider `CNC(=O)[C@@]12C[C@@H]1[C@@H](n1cnc3c4c(c(Cl)nc31)CC(C)N4)[C@H](O)[C@@H]2O` (some centres unmarked) [5A*], for which, in test [1] (setting [3]), the inhibition constant (Ki) is 3.84 nM. In addition, in test [2], the EC50 turned out to be 0.82 nM and the “cAMP Efficacy (%)” value came out at 105.62%.
On the same counts, the results for `Cc1cc2c(Cl)nc3c(ncn3[C@@H]3O[C@H](CO)[C@@H](O)[C@H]3O)c2[nH]1` [6A*] are 1.33 nM, 0.38 nM and 102.76%.
On the same counts, the results for `Cc1cc2c(C#CC3CC3)nc3c(ncn3[C@H]3[C@H](O)[C@H](O)C4C[C@@H]43)c2[nH]1` (some centres unmarked) [7A*] are 0.619 nM, 0.91 nM and 47.98%.
On the same counts, the results for `CNC(=O)[C@@]12C[C@@H]1[C@@H](n1cnc3c4c(c(Cl)nc31)C(O)CC(C)N4)[C@H](O)[C@@H]2O` (some centres unmarked) [8A* and 8B*] are 5.84 nM, 6 nM and 107.96%.
For the molecule `O[C@H]1[C@H](n2cnc3c4[nH]c(Cc5ccccc5)cc4c(Cl)nc32)[C@H]2CC2[C@H]1O` (some centres unmarked) [9A*], in test [1] (setting [3]), the Ki stood at 5.34 nM. Moreover, in test [2], the EC50 came out at 2.15 nM and the “cAMP Efficacy (%)” value turned out to be 74.92%.
The matching figures for `CNC(=O)[C@@]12C[C@@H]1[C@@H](n1cnc3c4c(c(Cl)nc31)CCC(C)N4)[C@H](O)[C@@H]2O` (some centres unmarked) [10A*]: 2 nM, 0.48 nM and 105.25%.
Take `CNC(=O)[C@@]12C[C@@H]1[C@@H](n1cnc3c4c(c(Cl)nc31)C(=O)CC(C)N4)[C@H](O)[C@@H]2O` (some centres unmarked) [11A*]: the Ki in test [1] (setting [3]) was determined as 3.36 nM.
As for `CC1Cc2c(Cl)nc3c(ncn3[C@H]3[C@H](O)[C@H](O)C4C[C@@H]43)c2N1` (some centres unmarked) [12A*], in test [1] (setting [3]), the inhibition constant (Ki) was 14.8 nM. In addition, in test [2], a half-maximal effect (EC50) was put at 11.4 nM and the “cAMP Efficacy (%)” value was 63.56%.
On to `CC1CC(=O)c2c(Cl)nc3c(ncn3[C@@H]3[C@@H](O)[C@@H](O)[C@@]4(CO)C[C@@H]34)c2N1` (some centres unmarked) [13A*], for which the Ki in test [1] (setting [3]) stood at 24.1 nM.
Turning to `Cc1cc2cnc3c(ncn3[C@H]3[C@H](O)[C@H](O)C4C[C@@H]43)c2[nH]1` (some centres unmarked) [14A*], in test [1] (setting [3]), the Ki came out at 2.56 nM. In test [2], the concentration giving a half-maximal response (EC50) was 2.03 nM and the “cAMP Efficacy (%)” value came out at 87.04%.
On the same counts, the results for `Cc1cc2c(Cl)nc3c(ncn3[C@H]3[C@H](O)[C@H](O)C4C[C@@H]43)c2[nH]1` (some centres unmarked) [15A*] are 2.27 nM, 0.2 nM and 94.66^# %.
The matching figures for `CC1CCc2c(Cl)nc3c(ncn3[C@H]3[C@H](O)[C@H](O)C4C[C@@H]43)c2N1` (some centres unmarked) [16A*]: 45.7 nM, 5.36 nM and 55.74%.
For the molecule `CCOc1nc2c(ncn2[C@H]2[C@H](O)[C@H](O)C3C[C@@H]32)c2[nH]c(C)cc12` (some centres unmarked) [21A*], in test [1] (setting [3]), the inhibitory constant (Ki) came to 36 nM.
On the same count and under the same terms, the result for `Cc1nc2c(Cl)nc3c(ncn3[C@H]3[C@H](O)[C@H](O)C4C[C@@H]43)c2[nH]1` (some centres unmarked) [22A*] reads 1.8 nM.
The same measure, in the same setting: the result for `O[C@H]1[C@H](n2cnc3c4[nH]c(C(F)F)cc4c(Cl)nc32)[C@H]2CC2[C@H]1O` (some centres unmarked) [24A*] reads 0.916 nM.
As to `Cc1cc2c(Cl)nc3c(ncn3[C@H]3[C@H](O)[C@H](O)[C@]4(C(N)=O)C[C@H]34)c2[nH]1` [25A*], the Ki in test [1] (setting [3]) was found to be 24.2 nM. Also, in test [2], the EC50 amounted to 4.15 nM and the “cAMP Efficacy (%)” value is listed as 96.54%.
With `Cc1cc2c(Cl)nc3c(ncn3[C@H]3[C@H](O)[C@H](O)[C@]4(c5ncnn5C)C[C@H]34)c2[nH]1` [Compound 7B], the inhibition constant (Ki) in test [1] (setting [4]) is 151 nM.
Same read-out and setting: then `CCNc1cc(Cl)nc2c1ncn2[C@H]1[C@H](O)[C@H](O)[C@]2(c3nnnn3C)C[C@H]12` [Compound 11B], with greater than 806 nM.

By Ki is commonly meant a measure of affinity in units of concentration, obtained from inhibition or displacement. For orientation: EC50 means the concentration that produces a half-maximal response.

The values above are taken from patent US20260008805A1, “ADENOSINE ANALOGS FOR THE TREATMENT OF DISEASE” (BIOINTERVENE, INC., priority 2022, published 2026).
